# pIC50: −log10 of the molar value.
# Biological target: protein kinase C
# Experiment: inhibition of protein kinase C in vitro (protein kinase-induced incorporation of 32P from [γ-32P]ATP into histone)
# Assay type: biochemical
# Conditions: concentration reducing by 50% the protein kinase-induced incorporation of 32P from [γ-32P]ATP into histone
# Excerpt: The IC50 figures in the following Table, represent that concentration of test compound which reduces by 50% the protein kinase-induced incorporation of ^32 P from [γ-^32 P]ATP into histone.
row,pIC50,SMILES
1,7.60,"Cn1cc(C2=C(c3cn(CCCNC(N)=N[N+](=O)[O-])c4ccccc34)C(=O)NC2=O)c2ccccc21 [3-(1-methyl-3-indolyl)-4-[1-[3-(2-nitroguanidino)propyl]-3-indolyl]-1H-pyrrole-2,5-dione]"
2,6.30,"Cn1cc(C2=C(c3cn(CCC(N)=O)c4ccccc34)C(=O)NC2=O)c2ccccc21 [3-[1-(2-carbamoylethyl)-3-indolyl]-4-(1-methyl-3-indolyl)-1H-pyrrole-2,5-dione]"

# Second part, the compound before the results:
row,SMILES,pIC50
1,"Cc1cccc(C2=C(c3cn(C)c4ccccc34)C(=O)NC2=O)c1 [3-(1-methyl-3-indolyl)-4-(3-methylphenyl)-1H-pyrrole-2,5-dione]",6.00
2,"Cn1cc(C2=C(c3cn(C)c4ccc(N)cc34)C(=O)NC2=O)c2ccccc21 [3-(5-amino-1-methyl-3-indolyl)-4-(1-methyl-3-indolyl)-1H-pyrrole-2,5-dione]",6.22
3,"Cn1cc(C2=C(c3cn(CCCN=C=S)c4ccccc34)C(=O)NC2=O)c2ccccc21 [3-[1-(3-isothiocyanatopropyl)-3-indolyl]-4-(1-methyl-3-indolyl)-1H-pyrrole-2,5-dione]",8.10
4,"Cn1cc(C2=C(c3cn(CCCSC(=N)N)c4ccccc34)C(=O)NC2=O)c2ccccc21 [3-[1-[3-(amidinothio)propyl]-3-indolyl]-4-(1-methyl-3-indolyl)-1H-pyrrole-2,5-dione]",8.00
